Literature values, collected in US20240417323A1, “BUBBLE-CONTAINING GYPSUM SLURRY” (KAO CORPORATION, priority 2022, published 2024).

Details: 1-octanol/water; measured value if any, otherwise C log P calculated by C LOG P v 4.01

| Log P | Structure (SMILES) |
| --- | --- |
| 0.71 | OC1CCCC1 [cyclopentanol] |
| 1.52 | CC(C)OC(C)C [diisopropyl ether] |
| 0.1 | COC [dimethyl ether] |
| 0.88 | CCCC=O [butanal] |
| 0.8 | CCCCOC(=O)C(C)O (centres unmarked) [butyl lactate] |
| 1.78 | CCCCCC=O [hexanal] |
| 2.03 | CCCCOCC [butyl ethyl ether] |

Second part, the molecule before the results:

| Structure (SMILES) | Log P |
| --- | --- |
| CCC(C)(C)CO [2,2-dimethyl-1-butanol] | 1.57 |
| CC(C)CCCCCO [6-methyl-1-heptanol] | 2.73 |
| CCCC(C)(C)O [2-methyl-2-pentanol] | 1.57 |
| CC(C)CC(C)O (centres unmarked) [4-methyl-2-pentanol] | 1.57 |
| CCC(CC)CO [2-ethyl-1-butanol] | 1.75 |
| CC(C)CCCO [4-methyl-1-pentanol] | 1.75 |
| CCC(C)CCO (centres unmarked) [3-methyl-1-pentanol] | 1.75 |
| CC(C)C(C)O (centres unmarked) [3-methyl-2-butanol] | 1.28 |
| CCC(C)C(C)O (centres unmarked) [3-methyl-2-pentanol] | 1.57 |
| CCC(C)(O)CC [3-methyl-3-pentanol] | 1.57 |
| CCCCCCCO [Example 1-heptanol, 1-heptanol] | 2.62 |
| CCC(O)C(C)C (centres unmarked) [2-methyl-3-pentanol] | 1.57 |
| CCCC(C)CO (centres unmarked) [2-methyl-1-pentanol] | 1.75 |
